{"source": "patent US9149038B2", "about": "“4-amino-6-(heterocyclic)picolinates and 6-amino-2-(heterocyclic)pyrimidine-4-carboxylates and their use as herbicides” (Dow AgroSciences LLC, priority 2013, dated 2015)", "key": {"[1]": {"test_system": "Key Broadleaf Weed and Crop Species", "assay": "Post-Emergent Test II: postemergent herbicidal activity, visual rating after 14 d (Table 7)", "assay_type": "in vivo", "conditions": "post-emergence, 336 h; for pest or weed control at 35 g/ha: 35 g ai/ha; for pest or weed control at 70 g/ha: 70 g ai/ha; for pest or weed control at 140 g/ha: 140 g ai/ha", "procedure,_shortened": "(§1)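 Visual 0-100% injury score (0 no injury, 100 complete kill) at 14 d post-spray, relative to untreated plants. Seedlings at 1st-2nd true leaf stage; track sprayer at 187 L/ha, highest rate plus ½×, ¼×, ⅛×, 1/16× serial dilutions. Subirrigated after treatment.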"}, "[2]": {"test_system": "Key Grass and Sedge Weeds as well as Grass Crops", "assay": "Post-Emergent Test II: postemergent herbicidal activity, visual rating after 14 d (Table 8)", "assay_type": "in vivo", "conditions": "post-emergence, 336 h; for pest or weed control at 35 g/ha: 35 g ai/ha; for pest or weed control at 70 g/ha: 70 g ai/ha; for pest or weed control at 140 g/ha: 140 g ai/ha", "procedure,_shortened": "as §1"}, "[3]": {"conditions": "ABUTH: velvetleaf (Abutilon theophrasti), read-out: Visual Growth Reduction (%) 14 Days After Application ABUTH"}, "[4]": {"conditions": "AMARE: redroot pigweed (Amaranthus retroflexus), read-out: Visual Growth Reduction (%) 14 Days After Application AMARE"}, "[5]": {"conditions": "BRSNN: oilseed rape, canola (Brassica napus), read-out: Visual Growth Reduction (%) 14 Days After Application BRSNN"}, "[6]": {"conditions": "CHEAL: lambsquarters (Chenopodium album), read-out: Visual Growth Reduction (%) 14 Days After Application CHEAL"}, "[7]": {"conditions": "EPHHL: wild poinsettia (Euphorbia heterophylla), read-out: Visual Growth Reduction (%) 14 Days After Application EPHHL"}, "[8]": {"conditions": "HELAN: sunflower (Helianthus annuus), read-out: Visual Growth Reduction (%) 14 Days After Application HELAN"}, "[9]": {"conditions": "barnyardgrass (Echinochloa crus-galli), read-out: Visual Growth Reduction (%) 14 Days After Application, ECHCG"}, "[10]": {"conditions": "giant foxtail (Setaria faberi), read-out: Visual Growth Reduction (%) 14 Days After Application, SETFA"}, "[11]": {"conditions": "maize, corn (Zea mays), read-out: Visual Growth Reduction (%) 14 Days After Application, ZEAMX"}, "[12]": {"conditions": "rice (Oryza sativa), read-out: Visual Growth Reduction (%) 14 Days After Application, ORYSA"}, "[13]": {"conditions": "wheat, spring (Triticum aestivum), read-out: Visual Growth Reduction (%) 14 Days After Application, TRZAS"}, "[14]": {"conditions": "yellow nutsedge (Cyperus esculentus), read-out: Visual Growth Reduction (%) 14 Days After Application, CYPES"}}, "note": "Like-named read-outs stand apart in the source and are kept apart here.", "data": [{"smiles": "COC(=O)c1nc(-c2cccc3c2OCO3)cc(N)c1Cl", "note": "[Compound 93]", "values": [{"measurement": "pest or weed control at 35 g/ha", "setting": "[1]; [3]", "value": "0 to 29", "unit": "%"}, {"measurement": "pest or weed control at 70 g/ha", "setting": "[1]; [3]", "value": "0 to 29", "unit": "%"}, {"measurement": "pest or weed control at 140 g/ha", "setting": "[1]; [3]", "value": "45 to 59", "unit": "%"}, {"measurement": "pest or weed control at 35 g/ha", "setting": "[1]; [4]", "value": "0 to 29", "unit": "%"}, {"measurement": "pest or weed control at 70 g/ha", "setting": "[1]; [4]", "value": "0 to 29", "unit": "%"}, {"measurement": "pest or weed control at 140 g/ha", "setting": "[1]; [4]", "value": "60 to 74", "unit": "%"}, {"measurement": "pest or weed control at 35 g/ha", "setting": "[1]; [5]", "value": "0 to 29", "unit": "%"}, {"measurement": "pest or weed control at 70 g/ha", "setting": "[1]; [5]", "value": "30 to 44", "unit": "%"}, {"measurement": "pest or weed control at 140 g/ha", "setting": "[1]; [5]", "value": "60 to 74", "unit": "%"}, {"measurement": "pest or weed control at 35 g/ha", "setting": "[1]; [6]", "value": "60 to 74", "unit": "%"}, {"measurement": "pest or weed control at 70 g/ha", "setting": "[1]; [6]", "value": "75 to 84", "unit": "%"}, {"measurement": "pest or weed control at 140 g/ha", "setting": "[1]; [6]", "value": "95 to 100", "unit": "%"}, {"measurement": "pest or weed control at 35 g/ha", "setting": "[1]; [7]", "value": "0 to 29", "unit": "%"}, {"measurement": "pest or weed control at 70 g/ha", "setting": "[1]; [7]", "value": "0 to 29", "unit": "%"}, {"measurement": "pest or weed control at 140 g/ha", "setting": "[1]; [7]", "value": "0 to 29", "unit": "%"}, {"measurement": "pest or weed control at 35 g/ha", "setting": "[1]; [8]", "value": "45 to 59", "unit": "%"}, {"measurement": "pest or weed control at 70 g/ha", "setting": "[1]; [8]", "value": "60 to 74", "unit": "%"}, {"measurement": "pest or weed control at 140 g/ha", "setting": "[1]; [8]", "value": "75 to 84", "unit": "%"}, {"measurement": "pest or weed control at 35 g/ha", "setting": "[2]; [9]", "value": "0 to 29", "unit": "%"}, {"measurement": "pest or weed control at 70 g/ha", "setting": "[2]; [9]", "value": "0 to 29", "unit": "%"}, {"measurement": "pest or weed control at 140 g/ha", "setting": "[2]; [9]", "value": "0 to 29", "unit": "%"}, {"measurement": "pest or weed control at 35 g/ha", "setting": "[2]; [10]", "value": "0 to 29", "unit": "%"}, {"measurement": "pest or weed control at 70 g/ha", "setting": "[2]; [10]", "value": "0 to 29", "unit": "%"}, {"measurement": "pest or weed control at 140 g/ha", "setting": "[2]; [10]", "value": "0 to 29", "unit": "%"}, {"measurement": "pest or weed control at 35 g/ha", "setting": "[2]; [11]", "value": "0 to 29", "unit": "%"}, {"measurement": "pest or weed control at 70 g/ha", "setting": "[2]; [11]", "value": "0 to 29", "unit": "%"}, {"measurement": "pest or weed control at 140 g/ha", "setting": "[2]; [11]", "value": "0 to 29", "unit": "%"}, {"measurement": "pest or weed control at 35 g/ha", "setting": "[2]; [12]", "value": "0 to 29", "unit": "%"}, {"measurement": "pest or weed control at 70 g/ha", "setting": "[2]; [12]", "value": "0 to 29", "unit": "%"}, {"measurement": "pest or weed control at 140 g/ha", "setting": "[2]; [12]", "value": "0 to 29", "unit": "%"}, {"measurement": "pest or weed control at 35 g/ha", "setting": "[2]; [13]", "value": "0 to 29", "unit": "%"}, {"measurement": "pest or weed control at 70 g/ha", "setting": "[2]; [13]", "value": "0 to 29", "unit": "%"}, {"measurement": "pest or weed control at 140 g/ha", "setting": "[2]; [13]", "value": "0 to 29", "unit": "%"}, {"measurement": "pest or weed control at 35 g/ha", "setting": "[2]; [14]", "value": "0 to 29", "unit": "%"}, {"measurement": "pest or weed control at 70 g/ha", "setting": "[2]; [14]", "value": "0 to 29", "unit": "%"}, {"measurement": "pest or weed control at 140 g/ha", "setting": "[2]; [14]", "value": "0 to 29", "unit": "%"}]}]}
